Like-named read-outs stand apart in the source and are kept apart here.
Experiments:
[1] = test system: BGC-823 (human gastric cancer cells); assay: MTT cancer cell growth inhibition; type: cell-based; conditions: MTT
Procedure, shortened: (§1)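 Three-day compound exposure (final 10^−5–10^−10 M, three replicate wells) of cells seeded at 1500 per well precedes a 4 h MTT incubation at 37° C. Viability is taken from 570 nm absorbance after DMSO solubilisation, and GI50 calculated from it.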

[2] = test system: MOLT-4 (human acute lymphoblastic leukemia cells); assay: MTT cancer cell growth inhibition; type: cell-based; conditions: Homo sapiens, MOLT-4, 72 h, MTT
Procedure, shortened: as §1

[3] = test system: PANC-1 (Pac-1, human pancreatic cancer cells); assay: MTT cancer cell growth inhibition; type: cell-based; conditions: Homo sapiens, PANC-1, 72 h, MTT
Procedure, shortened: as §1

[4] = test system: U937 (human leukemia cells); assay: MTT cancer cell growth inhibition; type: cell-based; conditions: Homo sapiens, U-937, 72 h, MTT
Procedure, shortened: as §1

[5] = test system: MCF-7 (human breast cancer cells); assay: MTT cancer cell growth inhibition; type: cell-based; conditions: Homo sapiens, MCF7, 72 h
Procedure, shortened: as §1

[6] = test system: Huh-7 (human hepatoma cells); assay: MTT cancer cell growth inhibition; type: cell-based; conditions: Homo sapiens, Huh-7, 72 h, MTT, 72 hours incubation, Huh-7 cells; read-out: GI50 Huh-7
Procedure, shortened: as §1

[7] = test system: DU145 (human prostate cancer cells); assay: MTT cancer cell growth inhibition; type: cell-based; conditions: MTT
Procedure, shortened: as §1

[8] = test system: Bel-7402 (human hepatoma cells); assay: MTT cancer cell growth inhibition; type: cell-based; conditions: Homo sapiens, Bel-7402, 72 h, MTT, 72 hours incubation, Bel-7402 cells; read-out: GI50 Bel-7402
Procedure, shortened: as §1

[9] = test system: lncap (prostate cancer cells); assay: MTT cancer cell growth inhibition; type: cell-based; conditions: Homo sapiens, LNCaP, 72 h, MTT
Procedure, shortened: as §1

[10] = test system: A549 (human lung cancer cells); assay: MTT cancer cell growth inhibition; type: cell-based; conditions: Homo sapiens, A549, 72 h, MTT
Procedure, shortened: as §1

HDAC8 = target: T1, HDAC8 (Homo sapiens, UniProt Q9BY41); assay: HDAC biochemical activity measurement (fluorescent substrate deacetylation); conditions: 37° C. 30 minutes
T1 sequence (Q9BY41 1-377): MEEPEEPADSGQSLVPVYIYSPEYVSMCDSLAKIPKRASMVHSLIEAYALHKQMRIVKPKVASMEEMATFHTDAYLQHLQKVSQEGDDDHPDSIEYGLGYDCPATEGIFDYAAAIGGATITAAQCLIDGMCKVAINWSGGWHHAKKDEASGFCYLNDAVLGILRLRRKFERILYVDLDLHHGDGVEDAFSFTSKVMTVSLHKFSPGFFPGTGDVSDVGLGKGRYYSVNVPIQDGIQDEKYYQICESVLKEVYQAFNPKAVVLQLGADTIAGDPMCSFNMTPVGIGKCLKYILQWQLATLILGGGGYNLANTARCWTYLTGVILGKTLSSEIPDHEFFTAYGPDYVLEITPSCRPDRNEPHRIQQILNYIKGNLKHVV

HDAC3 = HDAC3 (Homo sapiens, UniProt O15379); assay: as above;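 note: fluorogenic acetyl-lysine substrate (20 µM) deacetylated by HDAC3, then developer added for 15 min at room temperature, release of fluorophore read at excitation 360 nm, emission 460 nm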
Chain of HDAC3 (O15379 whole entry, species assumed): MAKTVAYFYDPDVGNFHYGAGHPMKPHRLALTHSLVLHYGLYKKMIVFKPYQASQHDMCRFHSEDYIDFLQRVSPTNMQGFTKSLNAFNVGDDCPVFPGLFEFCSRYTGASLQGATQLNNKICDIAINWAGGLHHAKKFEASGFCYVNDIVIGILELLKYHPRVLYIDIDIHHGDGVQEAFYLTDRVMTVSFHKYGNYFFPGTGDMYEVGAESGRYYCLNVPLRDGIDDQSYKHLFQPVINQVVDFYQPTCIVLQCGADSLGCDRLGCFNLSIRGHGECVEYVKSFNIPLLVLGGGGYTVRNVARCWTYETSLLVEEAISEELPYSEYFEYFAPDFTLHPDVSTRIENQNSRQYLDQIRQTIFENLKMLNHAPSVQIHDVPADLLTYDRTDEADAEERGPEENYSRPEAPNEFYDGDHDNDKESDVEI
Chain of HDAC3 (Q9Y618 395-489 partner limits assumed, species assumed): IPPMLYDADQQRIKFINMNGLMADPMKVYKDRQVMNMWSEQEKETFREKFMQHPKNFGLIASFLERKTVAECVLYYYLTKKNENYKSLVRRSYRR

HDAC1 = HDAC1 (Homo sapiens, UniProt Q13547); assay: as above;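 note: fluorogenic acetyl-lysine substrate (20 µM) deacetylated by HDAC1, then developer releases fluorophore read at 360 nm excitation and 460 nm emission, inhibitor incubated 30 min at 37 °C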
Chain of HDAC1 (Q13547 whole entry, species assumed): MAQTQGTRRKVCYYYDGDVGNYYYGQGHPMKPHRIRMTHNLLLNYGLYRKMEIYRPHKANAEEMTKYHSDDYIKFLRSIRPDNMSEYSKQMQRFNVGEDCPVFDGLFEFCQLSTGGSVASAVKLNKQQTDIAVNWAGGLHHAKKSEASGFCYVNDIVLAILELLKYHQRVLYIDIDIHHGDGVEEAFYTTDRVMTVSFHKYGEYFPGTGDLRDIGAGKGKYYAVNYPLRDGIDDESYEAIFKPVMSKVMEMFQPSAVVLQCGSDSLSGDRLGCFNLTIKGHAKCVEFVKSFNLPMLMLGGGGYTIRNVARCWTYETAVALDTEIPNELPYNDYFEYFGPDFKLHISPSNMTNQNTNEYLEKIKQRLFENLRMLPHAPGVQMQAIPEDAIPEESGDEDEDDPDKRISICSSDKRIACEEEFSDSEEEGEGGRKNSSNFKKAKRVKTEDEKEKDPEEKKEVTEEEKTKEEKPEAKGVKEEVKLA

[11] = Homo sapiens, BGC-823, 72 h, 72 hours incubation, read-out: GI50 BG
[12] = Homo sapiens, BGC-823, 72 h, 72 hours, present invention, read-out: GI50 BGC823, a
[13] = 72 hours incubation, read-out: GI50 Mol
[14] = 72 hours, present invention, read-out: GI50 Molt-4, a
[15] = 72 hours incubation, read-out: GI50 PAN
[16] = 72 hours, present invention, read-out: GI50 PANC-1, a
[17] = 72 hours incubation, read-out: GI50 U93
[18] = 72 hours, present invention, read-out: GI50 U937, a
[19] = 72 hours incubation, read-out: GI50 MCF
[20] = 72 hours, present invention, read-out: GI50 MCF7, a
[21] = Homo sapiens, DU-145, 72 h, 72 hours incubation, read-out: GI50 Du1
[22] = Homo sapiens, DU-145, 72 h, 72 hours, present invention, read-out: GI50 Du145, a
[23] = 72 hours incubation, read-out: GI50 lnca
[24] = 72 hours, present invention, read-out: GI50 lncap, a
[25] = 72 hours incubation, read-out: GI50 A54
[26] = 72 hours, present invention, read-out: GI50 A549, a
[27] = read-out: IC50 HDAC3, HDAC3, 37° C. 30 minutes
[28] = HDAC1, 37° C. 30 minutes, read-out: IC50 HDAC1
[29] = Table 2, read-out: IC50 HDAC1, a (compounds of the present invention)
[30] = Table 3, read-out: IC50 HDAC1, D (non-substituent)
[31] = Homo sapiens, BGC-823, 72 h, BGC-823 cells, 72 hours incubation, read-out: GI50 BG
[32] = MOLT-4 cells, 72 hours incubation, read-out: GI50 Mol
[33] = PANC-1 cells, 72 hours incubation, read-out: GI50 PAN
[34] = U937 cells, 72 hours incubation, read-out: GI50 U93
[35] = MCF-7 cells, 72 hours incubation, read-out: GI50 MCF
[36] = Homo sapiens, DU-145, 72 h, DU145 cells, 72 hours incubation, read-out: GI50 Du1
[37] = lncap cells, 72 hours incubation, read-out: GI50 lnca
[38] = A549 cells, 72 hours incubation, read-out: GI50 A54
[39] = Table 3, column C, read-out: IC50 HDAC1, C (six-membered ring with substituents)

Row | Compound | GI50 [1, 11] | GI50 [2, 13] | GI50 [3, 15] | GI50 [4, 17] | GI50 [5, 19] | GI50 [6] | GI50 [7, 21] | GI50 [8] | GI50 [9, 23] | GI50 [10, 25] | IC50 (HDAC8) | IC50 (HDAC3; [27]) | IC50 (HDAC1; [28]) | IC50 (HDAC3) | also measured
1 | C/C=C1\NC(=O)c2cccc(n2)CNC(=O)C[C@@H](/C=C/CCSC(=O)CCCCCCC)OC(=O)[C@H](C)NC1=O [Compound 11] | 410 nM | 10 nM | 60 nM | 30 nM | 50 nM | 43 nM | 30 nM | 76 nM | 20 nM | 430 nM | 71 nM | 45 nM | 29 nM | – | GI50 [1, 12]: 410 nM; GI50 [2, 14]: 17 nM; GI50 [3, 16]: 60 nM; GI50 [4, 18]: 35 nM; GI50 [5, 20]: 50 nM; GI50 [7, 22]: 33 nM; GI50 [9, 24]: 25 nM; GI50 [10, 26]: 430 nM; IC50 (HDAC1; [29]): < 30 nM; IC50 (HDAC1; [30]): 29 nM
2 | C/C=C1\NC(=O)c2nc(ccc2F)CCNC(=O)C[C@@H](/C=C/CCSC(C)=O)OC(=O)[C@H](C(C)C)NC1=O [Compound 103] | 20 nM | 20 nM | 80 nM | 50 nM | 30 nM | 47 nM | 30 nM | 25 nM | 20 nM | 40 nM | 16 nM | – | 38 nM | 53 nM | –
3 | C/C=C1\NC(=O)c2nc(ccc2SC)CNC(=O)C[C@@H](/C=C/CCSC=O)OC(=O)[C@H](C(C)C)NC1=O [Compound 168] | – | – | – | – | – | 56 nM | – | 44 nM | – | – | 13 nM | – | 91 nM | 34 nM | GI50 [1, 31]: 10 nM; GI50 [2, 32]: 100 nM; GI50 [3, 33]: 60 nM; GI50 [4, 34]: 40 nM; GI50 [5, 35]: 60 nM; GI50 [7, 36]: 50 nM; GI50 [9, 37]: 20 nM; GI50 [10, 38]: 80 nM
4 | C/C=C1\NC(=O)c2cccc(n2)CNC(=O)C[C@@H](/C=C/CCSC(C)=O)OC(=O)[C@H](Cc2cccc3ccccc23)NC1=O [Compound 17] | 19700 nM | 920 nM | 23300 nM | 20100 nM | 22000 nM | 61 nM | 5220 nM | 92 nM | 530 nM | 1930 nM | 81 nM | 69 nM | 176 nM | – | IC50 (HDAC1; [30]): 176 nM
5 | C/C=C1\NC(=O)c2cc(F)cc(n2)CNC(=O)C[C@@H](/C=C/CCSC(C)=O)OC(=O)[C@H](C(C)C)NC1=O [Compound 94] | – | 30 nM | 80 nM | 30 nM | 30 nM | 33 nM | – | 84 nM | 30 nM | 40 nM | 28 nM | – | 42 nM | 28 nM | GI50 ([1]; 72 hours incubation, read-out: GI50 BG): 30 nM; GI50 ([7]; 72 hours incubation, read-out: GI50 Du1): 30 nM
6 | C/C=C1\NC(=O)c2cccc(n2)CNC(=O)C[C@@H](/C=C/CCSC(=O)CCCCCCC)OC(=O)[C@H](CSCC)NC1=O [Compound 242] | – | – | – | – | – | 59 nM | – | 88 nM | – | – | 55 nM | – | 19 nM | 32 nM | GI50 [1, 31]: 10 nM; GI50 [1, 12]: 14 nM; GI50 [2, 32]: 30 nM; GI50 [2, 14]: 32 nM; GI50 [3, 16]: 950 nM; GI50 [3, 33]: 950 nM; GI50 [4, 18]: 12 nM; GI50 [4, 34]: 10 nM; GI50 [5, 20]: 73 nM; GI50 [5, 35]: 70 nM; GI50 [7, 36]: 90 nM; GI50 [7, 22]: 91 nM; GI50 [9, 24]: 170 nM; GI50 [9, 37]: 170 nM; GI50 [10, 38]: 190 nM; GI50 [10, 26]: 190 nM; IC50 (HDAC1; [29]): < 20 nM
7 | C/C=C1\NC(=O)c2cc(F)cc(n2)CCNC(=O)C[C@@H](/C=C/CCSC(C)=O)OC(=O)[C@H](C(C)C)NC1=O [Compound 104] | 10 nM | 30 nM | 90 nM | 50 nM | 20 nM | 89 nM | 40 nM | 57 nM | 30 nM | 50 nM | 19 nM | – | 51 nM | 43 nM | –
8 | C/C=C1\NC(=O)c2cc(F)cc(n2)CNC(=O)C[C@@H](/C=C/CCSC(=O)CCCCCCC)OC(=O)[C@H](C)NC1=O [Compound 61] | 70 nM | 30 nM | 60 nM | 50 nM | 90 nM | 38 nM | 30 nM | 67 nM | 30 nM | 30 nM | 38 nM | 38 nM | 13 nM | – | IC50 (HDAC1; [39]): 13 nM
9 | C/C=C1\NC(=O)c2ccc(F)c(n2)CNC(=O)C[C@@H](/C=C/CCSC(C)=O)OC(=O)[C@H](CCCCN)NC1=O [Example 74] | 30 nM | 20 nM | 40 nM | 20 nM | 350 nM | 24 nM | 30 nM | 43 nM | 20 nM | 40 nM | 435 nM | – | 273 nM | 231 nM | –
10 | C/C=C1\NC(=O)c2nc(ccc2F)CNC(=O)C[C@@H](/C=C/CCSC(=O)CCCCCC)OC(=O)[C@H](C(C)C)NC1=O [Compound 33] | 60 nM | 30 nM | 80 nM | 20 nM | 50 nM | 31 nM | 10 nM | 83 nM | 30 nM | 50 nM | 59 nM | 36 nM | 23 nM | – | IC50 (HDAC1; [39]): 23 nM
11 | C/C=C1\NC(=O)c2nc(ccc2C)CNC(=O)C[C@@H](/C=C/CCSC(C)=O)OC(=O)[C@H](Cc2ccccc2)NC1=O [Compound 66] | 60 nM | 30 nM | 30 nM | 20 nM | 30 nM | 38 nM | 30 nM | 34 nM | 30 nM | 20 nM | 26 nM | 31 nM | 41 nM | – | IC50 (HDAC1; [39]): 41 nM

Reference: patent US10065990B2, “Cyclic peptide compound, and preparation method, pharmaceutical composition and use thereof” (HANGZHOU GUANYU BIO-MEDICAL CO., LTD, priority 2013, dated 2018)
